{
  "source": "patent US10111831B2",
  "about": "“Chewable vehicle for mouth absorption” (TECHNOLOGIES KHLOROS INC., priority 2011, dated 2018)",
  "key": {"[1]": {"assay": "Liberation of riboflavin from functional gel, passive vs artificial mastication", "type": "physicochemical", "settings": "Khlôros functional gel, 0.9% riboflavin, 10 ml H2O/gel, after 60 seconds, detection at 445 nm", "protocol": "• Material: • Khlôros functional gel (see examples I and II); • 0.9% Riboflavin; • Reactional media: 10 ml of H2O/gel; • Passive liberation of active ingredient (Riboflavin): no treatment on the gel; • Artificial mastication (active liberation): mimic the action of mastication →compression and soft shearing;\nDetection of the liberation of riboflavin and conversion in mM by the spectroscopic evaluation at 445 nm."}, "[2]": {"assay": "Release of yohimbine from chewing gum masticated in water or artificial saliva", "type": "physicochemical", "settings": "gum with Corynanthe yohimbe bark extract (8% yohimbine), artificially masticated 120 seconds in 10 ml, chromatography", "protocol": "• Chewing gums are prepared following example xx, containing a bark extract of Corynanthe yohimbe (containing 8% of yohimbine); • Gums are artificially masticated for 120 seconds in 10 ml of water or artificial saliva; • The quantity of released yohimbine is analysed by chromatography."}},
  "data": [
    {"smiles": "Cc1cc2nc3c(=O)[nH]c(=O)nc-3n(C[C@H](O)[C@H](O)[C@H](O)CO)c2cc1C", "note": "[riboflavin, Riboflavin]", "values": [
      {"measurement": "liberation of riboflavin after artificial mastication compared to passive liberation", "setting": "[1]", "result": 23, "unit": "times"}
    ]},
    {"smiles": "COC(=O)[C@@H]1[C@H]2C[C@H]3c4[nH]c5ccccc5c4CCN3C[C@@H]2CC[C@@H]1O", "note": "[yohimbine]", "values": [
      {"measurement": "quantity of yohimbine released, masticated in saliva versus water", "setting": "[2]", "result": "more than 5 time"}
    ]}
  ]
}
